# ChEMBL document CHEMBL2016562, “Optimization of Pharmacokinetics through Manipulation of Physicochemical Properties in a Series of HCV Inhibitors” (ACS Med Chem Lett, 2011)
# Legend:
# [1] = Half life in Sprague-Dawley rat liver microsomes; assay type: ADME, Microsome
# [2] = tested on: Hepatitis C virus; experiment: Antiviral activity against HCV subtype 1b in replicon cells after 3 days by luciferase reporter gene assay; assay type: functional, Hepacivirus hominis; settings: genotype 1b, 72 h
# [3] = Oral bioavailability in Sprague-Dawley rat after 30 mins; assay type: ADME, organism-based; settings: in vivo
# [4] = Mean residence time in Sprague-Dawley rat; assay type: ADME, organism-based; settings: in vivo
# [5] = Clearance in Sprague-Dawley rat after 30 mins; assay type: ADME, organism-based; settings: in vivo
# [6] = Volume of distribution at steady state in Sprague-Dawley rat after 30 mins; assay type: ADME, organism-based; settings: in vivo, read-out: Vdss
# [7] = Apparent permeability by PAMPA assay; assay type: ADME
SMILES,half-life [1] [h],EC50 [2] [nM],bioavailability [3] [%],MRT [4] [h],clearance [5] [mL/min/kg],Vd [6] [L/kg],Papp [7] [×10⁻⁶ cm/s]
NS(=O)(=O)c1ccc(CNc2nc(NCC(F)(F)F)c3nc(-c4ccc(-n5cncn5)cc4)ccc3n2)cc1,> 6.58,2,4,,,,
COc1ccc(-c2ccc3nc(N[C@H](C)c4ccc(-n5cncn5)cc4)nc(NCC(F)(F)F)c3n2)cc1S(C)(=O)=O,5.85,2,47,2.6,,,
NS(=O)(=O)c1ccc(CNc2nc(NCC(F)(F)F)c3nc(-c4ccc(F)nc4)ccc3n2)cc1,4.63,10,,4.9,3.33,1,
CC1(Oc2nc(NCc3ccc(-n4cncn4)cc3)nc3ccc(-c4ccc(OC5CC5)nc4)nc23)CC1,> 6.58,2,100,1.9,,,
COc1ccc(-c2ccc3nc(NCc4ccc(S(N)(=O)=O)cc4)nc(NCC(F)(F)F)c3n2)cc1S(C)(=O)=O,> 6.58,1,1,0.8,,,
NS(=O)(=O)c1cc(CNc2nc(NCC(F)(F)F)c3nc(-c4ccc(NC(=O)C5(C(F)(F)F)CC5)cc4)ccc3n2)cc(C(F)(F)F)c1,> 6.58,6,39,,,,0.09
COc1ccc(-c2ccc3nc(NCc4ccc(S(N)(=O)=O)cc4)nc(NC4(C#N)CC4)c3n2)cn1,1.62,1,2,0.4,,,
NS(=O)(=O)c1ccc(CNc2nc(NCC(F)(F)F)c3nc(-c4ccc(F)cc4)ccc3n2)cc1,> 6.58,16,100,6.9,5,2.3,
NS(=O)(=O)c1cc(Cl)cc(CNc2nc(NC3(C(F)(F)F)CC3)c3nc(-c4ccc(F)cc4)ccc3n2)c1,> 6.58,28,,11,6.67,4.3,
C[C@@H](Nc1nc(NC2(C(F)(F)F)CC2)c2nc(-c3cccc(S(C)(=O)=O)c3)ccc2n1)c1ccc(-n2cncn2)cc1,3.92,4,88,3.5,,,
NS(=O)(=O)c1ccc(CNc2nc(NCC(F)(F)F)c3nc(-c4ccc(NC(=O)C5CC5)cc4)ccc3n2)cc1,1.17,3,1,,,,0.004
N#CC1(Nc2nc(NCc3ccc(S(N)(=O)=O)cc3)nc3ccc(-c4ccc(F)nc4)nc23)CC1,> 6.58,5,,0.9,15,0.9,
FC(F)(F)CNc1nc(NCc2ccc(-n3cncn3)cc2)nc2ccc(-c3ccc(OC4CC4)nc3)nc12,> 6.58,3,59,5.3,,,
